Data from patent publication US11653689B2, “Probiotic Bifidobacterium breve strain and compositions comprising said strain” (Chr. Hansen A/S, priority 2018, dated 2023).

Experiments:
cyclooxygenase (COX) = assay: Serum prostaglandin E2 and thromboxane B2 by LC-MS/MS in trial subjects; assay type: in vivo, human; conditions: fasting serum, visit 2 to 7, 300 mg aspirin daily
Procedure: As exploratory endpoints, post-hoc intervention effects on prostaglandin E2 (PGE2) and thromboxane B2 (TBX2) in serum samples downstream of cyclooxygenase (COX) were studied.
After unblinding, a post-hoc lab analysis was performed on 2 biolipids PGE2 and TXB2 downstream from the COX enzyme in fasting serum samples obtained during visit 2 to visit 7. […] J. Chromatogr. […] Ambiotis were kept blinded for intervention during analyses and analyses were performed in single measurements.

[1] = Co-incubation of DSM 32356 with acetylsalicylic acid, metabolite analysis
Procedure: The overall aim with this experiment was to explore if Bifidobacterium breve DSM 32356 influenced the degradation of aspirin in vitro.
To cover a wide concentration range of acetylsalicylic acid the following concentrations were used: 20, 10, 5, 2.5, 1.25, 0.625, 0.3125 and 0 mM of acetylsalicylic acid.
The next day the grown culture was reinoculated in fresh MRS with 0.05% CyHCl (100 μL bacteria suspension in 10 mL MRS with 0.05% CyHCl). Six dilution rows were generated by transferring 1 mL of mixed inoculated culture to 10 mL MRS with 0.05% CyHCl. This was repeated 5 times. The bifidobacteria were cultured anaerobically overnight at 37° C. On the day of incubation with acetylsalicyl acid bacterial growth was evaluated by measuring optical density at 600 nm (OD600 nm) and cultures representing late exponential/early stationary phase were selected. […]
Nine mL of each acetylsalicylic acid solution (22.2, 11.1, 5.6, 2.8, 1.39, 0.69 and 0.35 mM) and the control condition (0 mM) were added to different sterile tubes in duplicate. […] After incubation, pH was measured in each vial and the solutions were sterile filtered and frozen at −80° C. until metabolite analysis. […]

upper GI bleeding = conditions: in vivo; cited from earlier work
Caco-2 cell layer = conditions: cited from earlier work

SMILES: CC(=O)Oc1ccccc1C(=O)O [acetylsalicylic acid (aspirin), acetylsalicylic acid]
- serum PGE2 concentrations (cyclooxygenase (COX)): robust inhibition
- serum TXB2 concentrations (cyclooxygenase (COX)): robust inhibition
- conversion of acetylsalicylic acid to salicylic acid ([1]; 24 hours, 37° C., with DSM 32356 or acid-adjusted to pH 4.5, MRS): most of the acetylsalicylic acid was converted to salicylic acid
- growth of DSM 32356 ([1]; increasing concentrations of aspirin): inhibited bacterial growth
- increased risk of upper GI bleeding (upper GI bleeding): 2- to 4 fold
- ZO-1 expression (Caco-2 cell layer): decreased
- flux of fluorescein isothiocyanate-conjugated dextran (Caco-2 cell layer): increases flux
- transepithelial electrical resistance (TEER) (Caco-2 cell layer): decreased
